Several values for one entry are separate records, joined by “and”; a condition that tells them apart may be missing. Identical values can stand only once.
How the values were obtained:
[1] = xn = mol fraction of the nth substance listed

CCn1ccnc1 + O
viscosity [mPa·s], [1], 100 kPa
Conditions | 298.15 K | 308.15 K | 318.15 K
x1 = 0.05 | 1.48 | 1.16 | 0.94
x1 = 0.1007 | 2.04 | 1.56 | 1.23
x1 = 0.1995 | 2.99 | 2.21 | 1.7
x1 = 0.2988 | 3.68 | 2.67 | 2.03
x1 = 0.3937 | 4.05 | 2.92 | 2.19
x1 = 0.4933 | 4.05 | 2.93 | 2.21
x1 = 0.6011 | 3.84 | 2.81 | 2.14
x1 = 0.695 | 3.18 | 2.41 | 1.89
x1 = 0.7956 | 2.65 | 2.07 | 1.67
x1 = 0.89 | 2.27 | 1.82 | 1.5
x1 = 0.9542 | 2.05 | 1.67 | 1.39

CCCCN
viscosity
Conditions | 293.15 K | 298.15 K | 303.15 K | 308.15 K | 313.15 K | 318.15 K | 323.15 K
100 kPa | – | 0.468 mPa·s | 0.458 mPa·s | – | 0.398 mPa·s | – | 0.353 mPa·s
101 kPa | 0.55 mPa·s and 0.523 mPa·s | 0.48 mPa·s and 0.474 mPa·s | – | – | 0.401 mPa·s and 0.3922 mPa·s and 0.3891 mPa·s | 0.3695 mPa·s | 0.3491 mPa·s
101.33 kPa | – | – | – | 0.412 mPa·s | 0.3891 mPa·s and 0.3887 mPa·s and 0.397 mPa·s | 0.3676 mPa·s | 0.3486 mPa·s and 0.355 mPa·s

CCCCN + Cc1ccc(C)cc1
[1], 303.15 K, 101 kPa
Conditions | viscosity [mPa·s]
x1 = 0.0795 | 0.545
x1 = 0.1507 | 0.53
x1 = 0.2545 | 0.511
x1 = 0.3628 | 0.494
x1 = 0.4612 | 0.481
x1 = 0.5562 | 0.471
x1 = 0.6469 | 0.464
x1 = 0.7338 | 0.457
x1 = 0.8144 | 0.451
x1 = 0.8979 | 0.448
x1 = 0.9456 | 0.444

CCCC(=O)OCC(COC(=O)CCC)OC(=O)CCC
101.33 kPa
Conditions | viscosity [mPa·s]
298 K | 8.68
303 K | 7.38
308 K | 6.32
313 K | 5.49

CCCCN + ClC(Cl)Cl
viscosity [mPa·s], [1], 101 kPa
Conditions | 293.15 K | 298.15 K | 303.15 K | 308.15 K
x1 = 0.0601 | 0.59 | 0.555 | 0.529 | 0.516
x1 = 0.1276 | 0.603 | 0.567 | 0.535 | 0.525
x1 = 0.1585 | 0.61 | 0.571 | – | 0.529
x1 = 0.2301 | 0.623 | 0.583 | 0.554 | 0.535
x1 = 0.2658 | 0.631 | 0.587 | 0.558 | 0.538
x1 = 0.336 | 0.641 | 0.598 | – | 0.541
x1 = 0.4049 | 0.647 | 0.6 | 0.567 | 0.543
x1 = 0.4341 | 0.649 | 0.599 | 0.568 | 0.541
x1 = 0.4542 | 0.649 | 0.6 | – | 0.54
x1 = 0.4991 | 0.645 | 0.598 | 0.561 | 0.536
x1 = 0.6045 | 0.63 | 0.585 | 0.548 | 0.524
x1 = 0.6156 | 0.627 | 0.58 | – | 0.52
x1 = 0.6443 | 0.621 | 0.573 | 0.54 | 0.516
x1 = 0.7093 | 0.604 | 0.559 | 0.526 | 0.503
x1 = 0.7325 | 0.596 | 0.552 | 0.52 | 0.496
x1 = 0.8611 | 0.556 | 0.514 | 0.487 | 0.46
x1 = 0.9302 | 0.532 | 0.492 | 0.463 | 0.437

CN + CS(C)=O
[1], 303.15 K, 101 kPa
Conditions | viscosity [mPa·s]
x2 = 0.0607 | 1.738
x2 = 0.12 | 1.823
x2 = 0.2348 | 1.891
x2 = 0.4501 | 2.172
x2 = 0.6481 | 2.077
x2 = 0.8308 | 1.895

O=[N+]([O-])c1ccc(O)cc1 + CCN(CC)CC
[1], 298.16 K, 101 kPa
Conditions | viscosity [mPa·s]
x1 = 0.5818 | 294.3
x1 = 0.5939 | 366.2
x1 = 0.6179 | 606.8
x1 = 0.6393 | 908.7
x1 = 0.6718 | 2449
x1 = 0.6969 | 3733
x1 = 0.7221 | 6669
x1 = 0.739 | 7410
x1 = 0.7731 | 8242
x1 = 0.7883 | 7522
x1 = 0.8008 | 6867
x1 = 0.8106 | 6269

— the CheMixHub viscosity set
